Paper PMC6211256, “From cycloheptathiophene-3-carboxamide to oxazinone-based derivatives as allosteric HIV-1 ribonuclease H inhibitors” (Journal of Enzyme Inhibition and Medicinal Chemistry, 2018)
pIC50: −log10 of the molar value. Entries after “also recorded” stand apart in the source; their conditions may differ. Read-outs that look alike come from different tables or passages of the source.

Key:
[1] = molecular target: p66/p51 HIV-1 RT (Human immunodeficiency virus type 1 group M subtype B, UniProt P04585); type: binding; details: increasing concentration of compound; 100 ng/µl HIV-1 RT
[2] = molecular target: V108F RT (RNase H function) (Human immunodeficiency virus type 1 group M subtype B, UniProt P04585, V695F); assay: RNase H activity of V108F mutated RT; type: biochemical, HIV-1; details: compared with wt RT
Description: (§1) HIV RT-associated RNase H activity was measured as described[40] using as a control the RNase H selective inhibitor RDS1759[9], and using different amount of enzymes according to a linear range of dose-response curve: 20 ng of WT RT; 75 ng V108F RT; 50 ng Y188A RT; 30 ng W229A RT; 100 ng A502F RT.

[3] = molecular target: A502F RT (RDDP function) (Human immunodeficiency virus type 1 group M subtype B, UniProt P04585, A1089F); assay: RDDP activity of A502F mutated RT; type: biochemical, HIV-1; details: compared with wt RT
Description: (§2) RNA-dependent DNA polymerase (RDDP) activity was measured as described[17] using and different amounts of enzymes according to a linear range of dose-response curve: 6 ng wt RT; 19 ng V108F RT; 45 ng Y188A RT; 30 ng W229A RT; A502F RT. The Yonetani-Theorell analysis was performed as previously described[41]^,[42].

[4] = molecular target: V108F RT (RDDP function) (Human immunodeficiency virus type 1 group M subtype B, UniProt P04585, V695F); assay: RDDP activity of V108F mutated RT; type: biochemical, HIV-1
Description: as §2

[5] = molecular target: W229A RT (RNase H function) (Human immunodeficiency virus type 1 group M subtype B, UniProt P04585, W816A); assay: RNase H activity of W229A mutated RT; type: biochemical, HIV-1; details: compared with wt RT
Description: as §1

[6] = molecular target: Y188A RT (RDDP function) (Human immunodeficiency virus type 1 group M subtype B, UniProt P04585, Y775A); assay: RDDP activity of Y188A mutated RT; type: biochemical, HIV-1
Description: as §2

[7] = Interaction between Mg2+ and HIV-1 RT inhibitors (UV-Vis spectra with MgCl2); type: physicochemical; details: 100 µM compound, MgCl2 up to 1.25 mM
Description: The effects of the magnesium ions were evaluated by mean of spectrophotometric method as reported, using a Ultrospec 2100 pro UV-Vis spectrophotometer (Amersham Biosciences) and Hellma quartz cuvette with 1 cm optical path. […]. Each studied compound was dissolved in DMSO to a final concentration of 10 mM and diluted in milliQ water to a final concentration of 100 µM. Each obtained solution was placed in a cuvette and the UV-Vis and the spectra were recorded between 200 and 700 nm using water milliQ (with a percentage of DMSO equal to the one present in the sample solution) as reference. Thereafter, small volumes of MgCl2 aqueous solution were added both in the sample and in the reference cuvettes to obtain a series of solutions containing increasing concentrations of MgCl2, up to 1.25 mM, carefully pipetting to mix, and the UV-Vis spectra were repeated. Each experiment was performed in triplicate.

[8] = molecular target: T1, HIV-1 RT-associated RNA dependent DNA polymerase (RDDP) (Human immunodeficiency virus type 1 group M subtype B, UniProt P04585); assay: HIV-1 RNA-dependent DNA polymerase activity determination (wt RT); type: biochemical
Description: (§3) Heterodimeric RT was expressed essentially as described[19]^,[39]. Using a BioLogic LP system (Biorad), using a combination of immobilised metal affinity (Ni-Sepharose high performance, Healthcare Lifescience) and ion exchange chromatography (Hi-trap heparin HP GE). The protein was dialysed and stored in buffer containing 50 mM Tris HCl pH 7.0, 25 mM NaCl, 1 mM EDTA, and 50% glycerol. Catalytic activities and protein concentrations were determined. Enzyme-containing fractions were pooled and aliquots were stored at −80 °C.
as §2

[9] = molecular target: T2, HIV-1 RT-associated RNase H (Human immunodeficiency virus type 1 group M subtype B, UniProt P04585); assay: HIV-1 DNA polymerase-independent RNase H activity determination (wt RT); type: biochemical
Description: as §3, §1

[10] = molecular target: A502F RT (RNase H function) (Human immunodeficiency virus type 1 group M subtype B, UniProt P04585, A1089F); assay: RNase H activity of A502F mutated RT; type: biochemical, HIV-1
Description: as §1

[11] = molecular target: HIV-1 RT wild type RNA-dependent DNA polymerase activity (Human immunodeficiency virus type 1 group M subtype B, UniProt P04585); assay: Yonetani-Theorell analysis of combination with EFV on RDDP function; type: biochemical; details: compound 22 at 10 and 30 μM with EFV
Description: as §2

[12] = molecular target: Y188A RT (RNase H function) (Human immunodeficiency virus type 1 group M subtype B, UniProt P04585, Y775A); assay: RNase H activity of Y188A mutated RT; type: biochemical, HIV-1; details: compared with wt RT
Description: as §1

[13] = Cytotoxicity in MT-4 cells; details: human
[14] = molecular target: W229A RT (RDDP function) (Human immunodeficiency virus type 1 group M subtype B, UniProt P04585, W816A); assay: RDDP activity of W229A mutated RT; type: biochemical, HIV-1; details: compared with wt RT
Description: as §2

[15] = molecular target: T1, HIV-1 RT-associated RNA dependent DNA polymerase (RDDP); set-up: method as in PMID 26990134; details: RDDP vs RNase H; cited from earlier work
[16] = molecular target: T2, HIV-1 RT-associated RNase H; set-up: method as in PMID 26990134; details: previously reported value; read-out: IC50, RNase H inhibition; cited from earlier work
[17] = wt RT, read-out: IC50, HIV-1 RT-associated RNase H activity

O=c1oc(-c2ccc(O)c(O)c2)nc2sc3ccccc3c12 [Compound 22, 2–(3,4-Dihydroxyphenyl)-4H-[1]benzothieno[2,3-d][1,3]oxazin-4-one]
change of RT melting temperature (Tm) [1]: dose-dependent increase in the RT Tm | effect of V108F substitution on inhibition of RNase H [2]: no significant effect | effect of A502F substitution on inhibition of RDDP [3]: not significantly affecting | pIC50 [4]: 4.98 | effect of W229A substitution on inhibition of RNase H [5]: did not significantly affect | pIC50 [6]: 5.02 | magnesium complexation (UV-Vis spectra) [7]: did not show any shift in the maximum of absorbance; also recorded: unable to chelate Mg^2+ ions | pIC50 [8]: 5.54 | pIC50 [9, 17]: 6.28 | pIC50 [10]: < 4.00 | Yonetani-Theorell: combined RDDP inhibition with EFV [11]: kinetically mutually exclusive | effect of Y188A substitution on inhibition of RNase H [12]: no significant effect | CC50 [13]: 27 to 300 µM | effect of W229A substitution on inhibition of RDDP [14]: did not significantly affect

O=c1oc(-c2ccc(O)c(O)c2)nc2c1CCCCC2 [Compound 25, 2–(3,4-Dihydroxyphenyl)-6,7,8,9-tetrahydrocyclohepta[d][1,3]oxazin-4(5H)-one]
CC50 [13]: 27 to 300 µM

O=c1oc(-c2ccc(O)c(O)c2)nc2c1sc1ccccc12 [Compound 24, 2–(3,4-Dihydroxyphenyl)-4H-[1]benzothieno[3,2-d][1,3]oxazin-4-one]
change of RT melting temperature (Tm) [1]: dose-dependent increase in the RT Tm | magnesium complexation (UV-Vis spectra) [7]: did not show any shift in the maximum of absorbance; also recorded: unable to chelate Mg^2+ ions | pIC50 [8]: 4.84 | pIC50 [9, 17]: 6.02 | CC50 [13]: 27 to 300 µM

O=c1oc(-c2ccc(O)c(O)c2)nc2sc3c(c12)CCCCC3 [Compound 10, 2–(3,4-Dihydroxyphenyl)-6,7,8,9-tetrahydro-4H,5H-cyclohepta[4,5]thieno[2,3-d][1,3]oxazin-4-one]
pIC50 ([9]; compound added after the RNA:DNA duplex substrate, read-out: IC50, RNase H activity, compound added after the RNA:DNA duplex substrate): 4.96 | pIC50 [9, 17]: 5.96 | CC50 [13]: 27 to 300 µM

O=c1oc(-c2ccc(O)c(O)c2)nc2sc3c(c12)CCC3 [Compound 21, 2–(3,4-Dihydroxyphenyl)-6,7-dihydro-4H,5H-cyclopenta[4,5]thieno[2,3-d][1,3]oxazin-4-one]
pIC50 [9, 17]: 6.00 | CC50 [13]: 27 to 300 µM

O=c1oc(-c2ccc(O)c(O)c2)nc2c3c(sc12)CCCCC3 [Compound 23, 2–(3,4-Dihydroxyphenyl)-7,8,9,10-tetrahydrocyclohepta[4,5]thieno[3,2-d][1,3]oxazin-4(6H)-one]
CC50 [13]: 27 to 300 µM

O=c1[nH]c(-c2ccc(O)c(O)c2)nc2ccccc12 [Compound 27, 2–(3,4-Dihydroxyphenyl)quinazolin-4(3H)-one]
CC50 [13]: 27 to 300 µM

O=c1oc(-c2ccc(O)c(O)c2)nc2sc3c(c12)CCCC3 [Compound 20, 2–(3,4-Dihydroxyphenyl)-5,6,7,8-tetrahydro-4H-[1]benzothieno[2,3-d][1,3]oxazin-4-one]
pIC50 [9, 17]: 5.47 | CC50 [13]: 27 to 300 µM

Nc1sc2c(c1C(=O)Nc1ccc(Cl)cc1)CCCCC2 [Compound 5]
pIC50 [9, 17]: 4.78

NC(=O)c1c(NC(=O)c2ccc(O)c(O)c2)sc2c1CCCCC2 [Compound 6, 2-[(3,4-Dihydroxybenzoyl)amino]-5,6,7,8-tetrahydro-4H-cyclohepta[b]thiophene-3-carboxamide]
pIC50 [9, 17]: 5.59

O=C(Nc1sc2c(c1C(=O)Nc1ccccn1)CCCCC2)c1ccc(O)c(O)c1 [Compound 1]
weaker potency against the polymerase activity with respect to RNase H activity [15]: 20 fold | pIC50 [16]: 6.08

COc1ccccc1C(=O)Nc1sc2c(c1C(N)=O)CCCCC2 [Compound 7, 2-[(2-Methoxybenzoyl)amino]-5,6,7,8-tetrahydro-4H-cyclohepta[b]thiophene-3-carboxamide]
pIC50 [9, 17]: 4.85

O=c1oc(-c2ccc(O)c(O)c2)nc2ccccc12 [Compound 26, 2–(3,4-Dihydroxyphenyl)-4H-3,1-benzoxazin-4-one]
CC50 [13]: 27 to 300 µM

O=c1oc(-c2ccccc2O)nc2sc3c(c12)CCCCC3 [Compound 12, 2–(2-Hydroxyphenyl)-6,7,8,9-tetrahydro-4H,5H-cyclohepta[4,5]thieno[2,3-d][1,3]oxazin-4-one]
pIC50 [9, 17]: 4.74
